Results from paper PMC12675575, “A BRET biosensor for measuring uncompetitive engagement of PRMT5 complexes in cells” (Nature Communications, 2025).
Several values for one entry are separate records, joined by “and”; a condition that tells them apart may be missing. Equal values may be shown once.

How the values were obtained:
[1] = target: T1, NLuc-PRMT5 co-expressed with WDR77 in HCT116 MTAP wild-type cells (Homo sapiens, UniProt O14744); experiment: Live-cell NanoBRET target engagement in HCT116 MTAP wild-type cells (NLuc-PRMT5 + WDR77); format: cell-based; details: for BRET, CBH-002 + DMSO: Fig 5A, Log([CBH-002]); for normalized BRET, CBH-002 + DMSO (Figure S6C) / normalized BRET, CBH-002 + GSK3326595 (Figure S6C): log([CBH-002])
T1 construct: Horizon Discovery (cells) #PAR-034 and #R02-033 (cells); host or cells: HCT116 MTAP wild-type / MTAP-/-
T1 sequence (O14744 whole entry): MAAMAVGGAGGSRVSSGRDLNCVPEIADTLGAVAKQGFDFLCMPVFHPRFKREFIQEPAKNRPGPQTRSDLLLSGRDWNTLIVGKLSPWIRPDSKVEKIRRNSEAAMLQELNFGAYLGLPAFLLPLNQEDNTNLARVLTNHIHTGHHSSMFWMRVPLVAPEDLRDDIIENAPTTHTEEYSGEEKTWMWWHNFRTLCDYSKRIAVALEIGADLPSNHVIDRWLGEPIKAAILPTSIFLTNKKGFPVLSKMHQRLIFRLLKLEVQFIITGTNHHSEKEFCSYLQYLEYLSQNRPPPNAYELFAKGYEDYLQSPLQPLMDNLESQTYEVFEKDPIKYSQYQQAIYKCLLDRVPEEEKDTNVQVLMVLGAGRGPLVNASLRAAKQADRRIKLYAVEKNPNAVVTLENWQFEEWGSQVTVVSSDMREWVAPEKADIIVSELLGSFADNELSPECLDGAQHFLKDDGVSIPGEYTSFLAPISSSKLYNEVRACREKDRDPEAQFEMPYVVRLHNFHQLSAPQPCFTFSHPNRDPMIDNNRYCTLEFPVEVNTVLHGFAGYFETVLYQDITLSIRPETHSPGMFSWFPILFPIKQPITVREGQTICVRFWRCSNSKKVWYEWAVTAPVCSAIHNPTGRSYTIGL
T1 sequence (Q9BQA1 whole entry partner): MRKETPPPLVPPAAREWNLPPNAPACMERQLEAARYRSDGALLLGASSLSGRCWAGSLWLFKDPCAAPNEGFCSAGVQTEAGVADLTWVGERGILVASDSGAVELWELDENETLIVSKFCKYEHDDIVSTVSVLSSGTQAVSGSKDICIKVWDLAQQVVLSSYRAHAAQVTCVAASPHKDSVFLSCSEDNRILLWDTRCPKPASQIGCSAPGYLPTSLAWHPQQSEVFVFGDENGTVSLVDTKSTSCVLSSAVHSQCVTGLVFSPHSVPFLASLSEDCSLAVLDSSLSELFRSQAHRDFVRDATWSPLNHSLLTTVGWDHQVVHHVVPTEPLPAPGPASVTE
Experimental: HEK293 cells (ATCC) were cultured in DMEM (Thermo Fisher) + 10% (v/v) FBS (Seredigm), and HCT116 cells (Horizon Discovery, #PAR-034 and #R02-033) were cultured in McCoy’s 5A (Thermo Fisher) + 10% FBS, with incubation in a humidified, 37 °C/5% CO2 incubator. Cells were split 1–3 days prior to performing experiments and used at roughly 80% confluency. […] Cells were transfected according to the manufacturer’s protocol using FuGENE HD (Promega). NanoLuc fusion DNA was diluted into Transfection Carrier DNA (Promega) in Opti-MEM at a ratio of 1:9 (mass/mass), and FuGENE HD was added at a ratio of 1:3 (μg DNA:μL lipid). […] Formed complexes were combined with cells resuspended to a density of 2 × 10^5 cells/mL in Opti-MEM + 1% FBS at a ratio of 1:20 (vol:vol). […] Cells were seeded at a density of 2 × 10^5 cells/mL in Opti-MEM + 1% FBS in 100 μL (96-well). The BRET probe CBH-002 was prepared first as a 100× stock in 100% DMSO (Sigma) and then diluted to a 20× stock in NanoBRET Tracer Dilution buffer (Promega). Test compounds were prepared as 1000× stocks in 100% DMSO and diluted to 10× stocks in Opti-MEM to prepare working stocks. […] NanoBRET Complete 3x Substrate was prepared by combining Nano-Glo Substrate and Extracellular NanoLuc Inhibitor in Opti-MEM, according to the manufacturer’s protocol (Promega).
(§1) EC50 values were obtained by fitting the BRET probe and compound affinity curves to a sigmoidal four-parameter fit model in Graphpad Prism:1 Y=Ymin+Ymax−Ymin/1+10^LogEC50−Xh where h is the Hill Slope.
When normalized BRET was used, mBRET values were normalized using2 NormalizedBRET%=(Y−BRETmin)/BRETmax−BRETmin where y = mBRET in the presence of test compound and BRET probe, BRETmin = mBRET at the highest concentration (saturating) of test compound and BRET probe, and BRETmax = mBRET in the presence of vehicle (DMSO) and BRET probe.
Normalized concentration-response curves showing full competition were fit using a 2-parameter model:3 Y=100/1+10^LogEC50−Xh
In situations where only partial competition was observed, the normalized concentration-response curves were fit using Eq. 1 and where Ymin was constrained to >0.

RIPK2 = target: T2, RIPK2 (Homo sapiens, UniProt O43353); experiment: CBH-002 affinity curve, HEK293, RIPK2-NL fusion (cytosolic control); format: cell-based; parameters: BRET, CBH-002 + DMSO / BRET, CBH-002 + GSK3326595: unit not given here; details: for BRET, CBH-002 + DMSO / BRET, CBH-002 + GSK3326595: Figure S2E RIPK2-NL, log([CBH-002])
T2 construct: host or cells: HEK293
T2 sequence (O43353 whole entry, the tested form may be a part): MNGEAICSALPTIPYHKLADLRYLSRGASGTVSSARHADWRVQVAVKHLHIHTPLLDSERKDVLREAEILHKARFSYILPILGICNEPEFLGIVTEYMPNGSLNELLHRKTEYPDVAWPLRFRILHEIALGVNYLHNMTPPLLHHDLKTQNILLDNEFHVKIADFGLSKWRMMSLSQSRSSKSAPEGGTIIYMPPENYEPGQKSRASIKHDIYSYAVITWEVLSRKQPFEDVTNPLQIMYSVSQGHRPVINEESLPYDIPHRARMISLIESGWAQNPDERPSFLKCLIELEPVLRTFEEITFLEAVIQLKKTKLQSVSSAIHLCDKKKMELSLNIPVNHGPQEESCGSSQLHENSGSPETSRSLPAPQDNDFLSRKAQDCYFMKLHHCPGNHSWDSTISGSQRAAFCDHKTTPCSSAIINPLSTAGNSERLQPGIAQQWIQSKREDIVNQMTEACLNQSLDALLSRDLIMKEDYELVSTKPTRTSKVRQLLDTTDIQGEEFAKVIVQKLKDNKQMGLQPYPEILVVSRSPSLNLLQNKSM
Experimental: HEK293 cells (ATCC) were cultured in DMEM (Thermo Fisher) + 10% (v/v) FBS (Seredigm), and HCT116 cells (Horizon Discovery, #PAR-034 and #R02-033) were cultured in McCoy’s 5A (Thermo Fisher) + 10% FBS, with incubation in a humidified, 37 °C/5% CO2 incubator. Cells were split 1–3 days prior to performing experiments and used at roughly 80% confluency. […] Cells were transfected according to the manufacturer’s protocol using FuGENE HD (Promega). NanoLuc fusion DNA was diluted into Transfection Carrier DNA (Promega) in Opti-MEM at a ratio of 1:9 (mass/mass), and FuGENE HD was added at a ratio of 1:3 (μg DNA:μL lipid). For experiments using WDR77, untagged WDR77 DNA (Promega) was used in place of Carrier DNA. Formed complexes were combined with cells resuspended to a density of 2 × 10^5 cells/mL in Opti-MEM + 1% FBS at a ratio of 1:20 (vol:vol). Cells were plated into a flask and incubated at 37 °C in a humidified 5% CO2 atmosphere for 18–24 h, before being lifted and seeded into 96-well non-binding surface-treated plates (Corning). Cells were seeded at a density of 2 × 10^5 cells/mL in Opti-MEM + 1% FBS in 100 μL (96-well). The BRET probe CBH-002 was prepared first as a 100× stock in 100% DMSO (Sigma) and then diluted to a 20× stock in NanoBRET Tracer Dilution buffer (Promega). Test compounds were prepared as 1000× stocks in 100% DMSO and diluted to 10× stocks in Opti-MEM to prepare working stocks. […] NanoBRET Complete 3x Substrate was prepared by combining Nano-Glo Substrate and Extracellular NanoLuc Inhibitor in Opti-MEM, according to the manufacturer’s protocol (Promega). NanoBRET Complete 3× Substrate was added to cells and plates were measured on either a PheraSTAR FSX equipped with 450 nm (donor) and 610 nm (acceptor) filters, or a GloMAX Discover equipped with 450/8 nm BP (donor) and 600 nm LP (acceptor) filters, using a 0.3 s integration time.
as §1

Compound: O=C(CCc1ccc2n1[B-](F)(F)[N+]1=C(c3ccc[nH]3)C=CC1=C2)NCCCCC(=O)N1CCC(Nc2cc(C(=O)NC[C@H](O)CN3CCc4ccccc4C3)ncn2)CC1 [CBH-002]
- BRET, CBH-002 + DMSO ([1]; uM -0.60): 403 and 799.01 and 758.47
- BRET, CBH-002 + DMSO ([1]; uM -0.90): 393 and 766.11 and 738.99
- BRET, CBH-002 + DMSO ([1]; uM -1.20): 378 and 710.21 and 697.93
- BRET, CBH-002 + DMSO ([1]; uM -1.51): 362 and 618.54 and 616.68
- BRET, CBH-002 + DMSO ([1]; uM -1.81): 323
- BRET, CBH-002 + DMSO ([1]; uM -2.71): 68.8 and 69.23 and 65.71
- EC50 ([1]; HCT116 wild-type cells, WDR77 co-expression, read-out: CBH-002 apparent affinity (EC50)): 12 nM
- normalized BRET, CBH-002 + DMSO (Figure S6C) ([1]; uM = -0.60): 100
- normalized BRET, CBH-002 + GSK3326595 (Figure S6C) ([1]; uM = -0.60): 12.6717 and 16.8431 and 16.7636
- normalized BRET, CBH-002 + DMSO (Figure S6C) ([1]; uM = -0.90): 97.4927 and 95.8339 and 97.4011
- normalized BRET, CBH-002 + GSK3326595 (Figure S6C) ([1]; uM = -0.90): 9.237 and 13.3988 and 13.2855
- normalized BRET, CBH-002 + DMSO (Figure S6C) ([1]; uM = -1.20): 93.7318 and 88.7552 and 91.9231
- normalized BRET, CBH-002 + GSK3326595 (Figure S6C) ([1]; uM = -1.20): 5.8269 and 8.083 and 8.045
- normalized BRET, CBH-002 + DMSO (Figure S6C) ([1]; uM = -1.51): 89.7202 and 77.147 and 81.0831
- normalized BRET, CBH-002 + GSK3326595 (Figure S6C) ([1]; uM = -1.51): 3.295 and 4.174 and 4.336
- normalized BRET, CBH-002 + DMSO (Figure S6C) ([1]; uM = -1.81): 79.9418 and 55.2096 and 56.8522
- normalized BRET, CBH-002 + GSK3326595 (Figure S6C) ([1]; uM = -1.81): 1.59 and 1.874 and 2.064
- normalized BRET, CBH-002 + DMSO (Figure S6C) ([1]; uM = -2.11): 57.6271 and 32.8998 and 32.0743
- normalized BRET, CBH-002 + GSK3326595 (Figure S6C) ([1]; uM = -2.11): 0.7121 and 0.8016 and 0.8965
- normalized BRET, CBH-002 + DMSO (Figure S6C) ([1]; uM = -2.41): 31.5515 and 15.8288 and 15.9084
- normalized BRET, CBH-002 + GSK3326595 (Figure S6C) ([1]; uM = -2.41): 0.2206 and 0.2381 and 0.3149
- normalized BRET, CBH-002 + GSK3326595 (Figure S6C) ([1]; uM = -2.71): 0
- BRET, CBH-002 + DMSO (RIPK2; uM 0.04576): 1.852 and 1.939 and 2.142
- BRET, CBH-002 + GSK3326595 (RIPK2; uM 0.04576): 1.842 and 1.813 and 1.9392
- BRET, CBH-002 + DMSO (RIPK2; uM 0.52288): 5.1141 and 4.646 and 5.258
- BRET, CBH-002 + GSK3326595 (RIPK2; uM 0.52288): 4.515 and 4.266 and 4.4734
- BRET, CBH-002 + DMSO (RIPK2; uM 1): 11.7522 and 11.9286 and 12.3306
- BRET, CBH-002 + GSK3326595 (RIPK2; uM 1): 11.5342 and 11.3369 and 11.377
- BRET, CBH-002 + DMSO (RIPK2; uM -0.43136): 0.8543 and 0.8172 and 0.8282
- BRET, CBH-002 + GSK3326595 (RIPK2; uM -0.43136): 0.5912 and 0.5546 and 0.9723
- CBH-002 engagement at RIPK2 (RIPK2; HEK293, RIPK2-NL): did not show engagement
